One molecule from publication PMC5390312, “Genetic visualization of protein interactions harnessing liquid phase transitions” (Scientific Reports, 2017) can be followed below.

The test concerns the target T1, X-linked inhibitor of apoptosis protein (XIAP) (Homo sapiens, UniProt P98170).
T1 construct: BIR3 domain (XIAP-AG fusion); with Smac N-terminal region (SmacNT-PB1), displaced
Nature of the test: Fluoppi high-content assay in HEK293 cells, Smac/XIAP dissociation. It is filed as cell-based.

T1 sequence (P98170 241-356 limits assumed): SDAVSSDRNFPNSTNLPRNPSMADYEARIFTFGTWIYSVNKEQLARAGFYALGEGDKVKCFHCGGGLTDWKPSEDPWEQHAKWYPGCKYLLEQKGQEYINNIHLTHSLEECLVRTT
T1 sequence (Q9NR28 56-239 partner): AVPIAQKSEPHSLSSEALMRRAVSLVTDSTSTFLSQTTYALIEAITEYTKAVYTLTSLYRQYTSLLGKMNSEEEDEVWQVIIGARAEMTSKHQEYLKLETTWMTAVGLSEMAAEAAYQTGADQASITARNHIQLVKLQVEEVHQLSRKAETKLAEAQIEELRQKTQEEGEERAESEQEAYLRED

As to `CN[C@@H](C)C(=O)N[C@H]1CN(C(=O)CC(C)C)CC[C@H]2CC[C@@H](C(=O)NC(c3ccccc3)c3ccccc3)N2C1=O` [AT-406], the IC50 was 9.2 ± 1.2 µM.
